In the assay the target is Protein AF-9 (Homo sapiens) (UniProt P42568). The assay is described as follows: inhibitors of AF4-AF9 protein interaction, dose response, biochemical, cherry-picked samples, plate reader (AID 720495). Particulars: biochemical protein-protein interaction assay; for activity change, negative = inhibition: at 10 µM (top of the series).

Several values for one entry are separate records, joined by “and”; a condition that tells them apart may be missing. Equal entries are not always repeated. Results filed as inconclusive are left out. Activity calls are given as the source filed them. The rule behind the calls is not given here.

Sequence of Protein AF-9 (Homo sapiens) (P42568 whole entry, looked up): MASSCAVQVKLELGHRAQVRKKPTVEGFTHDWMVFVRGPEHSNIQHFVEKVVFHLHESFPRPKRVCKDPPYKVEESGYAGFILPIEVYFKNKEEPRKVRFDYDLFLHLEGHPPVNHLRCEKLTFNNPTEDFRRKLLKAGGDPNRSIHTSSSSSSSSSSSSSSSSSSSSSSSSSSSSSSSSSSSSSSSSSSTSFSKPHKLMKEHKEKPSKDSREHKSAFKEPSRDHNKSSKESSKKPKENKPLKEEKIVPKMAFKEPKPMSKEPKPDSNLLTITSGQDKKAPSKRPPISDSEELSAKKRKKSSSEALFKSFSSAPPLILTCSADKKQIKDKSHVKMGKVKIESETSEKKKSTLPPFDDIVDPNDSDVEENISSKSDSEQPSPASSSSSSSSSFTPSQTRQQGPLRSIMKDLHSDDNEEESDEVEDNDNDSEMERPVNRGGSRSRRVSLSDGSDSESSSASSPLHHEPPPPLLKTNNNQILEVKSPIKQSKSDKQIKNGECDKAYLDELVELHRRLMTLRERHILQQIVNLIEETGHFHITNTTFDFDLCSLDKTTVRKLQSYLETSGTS

With `Cc1cc2c(=Cc3ccc(N(C)C)cc3)c3ccccc3n2[n+]1C`, the “activity change, negative = inhibition” value is “inactive”.
Take `COc1cc(NCCCCCCN)c2ncccc2c1OC`: the AC50 is 2.62 µM.
As to `COc1ccc(OC)c(Nc2c3ccccc3nc3ccccc23)c1`, the AC50 is 7.11 µM.
For `COc1cc(Nc2c3ccccc3nc3ccccc23)cc(OC)c1OC`, the AC50 is 0.234 µM.
Same read-out and setting: then `O=C(/C(=N/N=C/c1ccc(O)c(O)c1)c1ccccc1)c1ccccc1`, with 1.62 µM.
On to `c1cc2c3c(cccc3c1)NC(c1ccc3c(c1)OCO3)N2`, for which the “activity change, negative = inhibition” value was “inactive”.
On to `COc1cc(N(C)C)ccc1C=c1c2ccccc2n2c1cc(-c1ccccc1)[n+]2C`, for which the AC50 is 1.88 µM.
For `Cc1[nH]c2ccccc2c1N=Nc1ccccc1F`, the AC50 is 10.2 µM.
For the molecule `C[n+]1c2n(c3ccccc31)N=C(c1cc(C(C)(C)C)c(O)c(C(C)(C)C)c1)CS2`, the “activity change, negative = inhibition” value is “inactive”.
With `CC(=O)OCCNc1cc(N2CCN(C)CC2)c2noc3c2c1C(=O)c1ccccc1-3`, the AC50 is 1.94 µM.
As to `CCN(CC)c1ccc(/C=C/c2ccc3ccc(OC)cc3[n+]2CC)cc1`, the AC50 was 2.36 µM.
`Cc1ccc(Nc2cc(C)nc3c(C)ccc([N+](=O)[O-])c23)cc1`: the “activity change, negative = inhibition” value is “inactive”.
`COc1ccccc1C#Cc1ccc2c(c1)[C@H]1[C@H](CCN1C(=O)c1ccncc1)[C@@H](CO)N2`: the AC50 is 7.63 µM.
The same measure, in the same setting: with `O=C(COc1cc(F)ccc1[N+](=O)[O-])Nc1ccc(N2CCCCC2)cc1` the figure was 9.04 µM.
In the case of `CCOC(=O)C1CCCN(C2=C(NS(=O)(=O)c3ccc(Br)cc3)C(=O)c3ccccc3C2=O)C1` (configuration not stated), the “activity change, negative = inhibition” value was “inactive”.
For `CCOc1ccc(NCc2cccn2-c2nnc(N3CCC(C(=O)NCCCN4CCCCC4)CC3)s2)cc1`, the concentration at half-maximal activity (AC50) was 5.94 µM.
`CC(C)C[C@@H](C(=O)NC1CCN(Cc2ccccc2)CC1)N1C(=O)N2CCc3c([nH]c4ccccc34)[C@@]2(C)C1=O`: the “activity change, negative = inhibition” value was “inactive”.
Consider `CC1NC(=O)NC1CCCCCC(=O)Nc1ccc(F)cc1` (configuration not stated), for which the AC50 was less than 0.08 µM.
In the case of `COc1cc(O)c(C(CCN2CCN(c3ccccc3)CC2)c2ccc(N(C)C)cc2)c(OC)c1` (configuration not stated), the “activity change, negative = inhibition” value was “inactive”.
Consider `COc1ccc(N2CCN(C3CCCCC3NS(=O)(=O)c3ccccc3)CC2)cc1` (configuration not stated), for which the “activity change, negative = inhibition” value was “inactive”.
Regarding `Cc1cc(N=Nc2ccc3ccccc3c2)ccc1O`, the half-maximal activity concentration (AC50) was 9.43 µM.
`CCOc1cc(/C=N/N=C(N)N)ccc1OCc1ccc(Cl)cc1`: the “activity change, negative = inhibition” value is “inactive”.
In the case of `COc1ccc2c(c1)c(=Cc1ccc(N(C)C)cc1)c1cc(-c3ccccc3)[n+](C)n12`, the AC50 was 2.49 µM.
With `C[C@H]1CCCCO[C@H](CN(C)Cc2ccc(Cl)c(Cl)c2)[C@@H](C)CN([C@@H](C)CO)C(=O)c2cc(N(C)C)ccc2O1`, the AC50 was 10.6 µM.
On the same count and under the same terms, then `CSC(=S)N/N=C/c1c[nH]c2ccccc12`, with 11.5 µM.
On the same count and under the same terms, with `CN(C)c1ccc(C=c2c3cc(O)ccc3n3c2cc(-c2ccccc2)[n+]3C)cc1` the figure was 0.975 µM.
With `c1ccc2c(c1)nc(Nc1ccc(N3CCCCC3)cc1)c1nncn12`, the “activity change, negative = inhibition” value was “inactive”.
On the same count and under the same terms, with `COC(=O)C1=CC(C(=O)c2cccs2)=NN(c2ccc(OC)cc2)C1C(=O)OC` (configuration not stated) the entry was “inactive”.
In the case of `COc1ccc(NCc2nn(CC(=O)c3ccc(Br)cc3)c3[n+]2CCCCC3)cc1`, the AC50 was 8.83 µM.
On to `CC#C[C@]1(O)CC[C@H]2[C@@H]3CCC4=CC(=O)CCC4=C3[C@@H](c3ccc(N(C)C)cc3)C[C@@]21C`, for which the “activity change, negative = inhibition” value is “inactive”.
Consider `CC(=NNC(=S)N1CCN(C2CCCCCC2)CC1)c1ccccn1`, for which the AC50 is 0.687 µM.
Regarding `Cc1cc2c(OCC(O)CNC3CCCCC3)cccc2[nH]1` (configuration not stated), the “activity change, negative = inhibition” value was “inactive”.
Regarding `COC1=C(Nc2ccccc2OC)C(=O)c2ccccc2C1=O`, the AC50 is 3.9 µM.
In the case of `Oc1cc(-c2ccncc2)cc2cccnc12`, the AC50 was 3.01 µM.
With `COC(=O)c1ccc2nc(C)cc(Nc3ccc(N(C)C)cc3)c2c1`, the AC50 is 4.41 µM.
Consider `CC(C)C1CC(CCNCc2ccc(N(C)C)cc2)(c2ccccc2)CCO1` (configuration not stated), for which the “activity change, negative = inhibition” value is “inactive”.
For the molecule `CN1CCN(C(c2ccc(Cl)cc2)c2cc(Cl)c3cccnc3c2O)CC1` (configuration not stated), the AC50 was 0.984 µM.
On to `c1ccc2c(Nc3ccc4c(c3)OCCO4)c3c(nc2c1)CCCC3`, for which the “activity change, negative = inhibition” value was “inactive”.
For `CN=c1scc(-c2ccccc2F)n1/N=C(\C)c1cccnc1`, the “activity change, negative = inhibition” value is “inactive”.
Same read-out and setting: with `O=C1CN=C(c2ccc(Br)cc2)c2c(sc3c2CCCC3)N1CCN1CCCCC1` the entry was “inactive”.
Consider `COc1ccc2[nH]c3c(C)c4cc[n+](C)cc4c(C)c3c2c1`, for which the AC50 is 3.07 µM.
As to `COc1ccccc1Nc1c2c(nc3ccc(N)cc13)CCCC2`, the “activity change, negative = inhibition” value is “inactive”.
On the same count and under the same terms, then `O=S(=O)(c1ccc(Cl)cc1)N1CCN(Cc2ccc(O)c3ncccc23)CC1`, with “inactive”; and `O=[N+]([O-])c1cc(/C=N/Nc2nc3ccccc3[nH]2)c(O)cc1O`, with “inactive”.
`COc1cccc(-c2ccc3c(c2)[C@H]2[C@H](CCN2C(=O)C2CCCCC2)[C@@H](CO)N3)c1`: the “activity change, negative = inhibition” value was “inactive”.
On to `CCN(CC)c1ccc(C(=C2C=CC(=[N+](CC)CC)C=C2)c2ccccc2)cc1`, for which the concentration at half-maximal activity (AC50) is 0.685 µM.
Take `CN(C)CCCN1c2ccccc2Sc2ccc(Cl)cc21`: the “activity change, negative = inhibition” value is “inactive”.
As for `O=C1c2c(O)ccc(O)c2C(=O)c2c(NCCNCCO)ccc(NCCNCCO)c21`, the AC50 was 0.15 µM and 0.374 µM.
For `Fc1ccc(C(c2ccc(F)cc2)N2CCN(C/C=C/c3ccccc3)CC2)cc1`, the “activity change, negative = inhibition” value was “inactive”.
For the molecule `CN1CCN(C(c2ccc(C(F)(F)F)cc2)c2cc(Cl)c3cccnc3c2O)CC1` (configuration not stated), the AC50 is 1.54 µM.
Consider `CC1NC(=O)NC1CCCCCC(=O)Nc1ccc(F)c(Cl)c1` (configuration not stated), for which the AC50 is less than 0.08 µM.
Same read-out and setting: with `C[C@@H]1CCCCO[C@H](CN(C)Cc2ccc(Cl)c(Cl)c2)[C@@H](C)CN([C@H](C)CO)C(=O)c2cc(N(C)C)ccc2O1` the figure was 10.1 µM.
`CC(C)N1C(=O)/C(=C\c2nc3ccccc3c(=O)[nH]2)c2ccccc21`: the “activity change, negative = inhibition” value is “inactive”.
In the case of `CN(C)C(CNC(C(=O)Nc1ccc([N+](=O)[O-])cc1Br)c1ccccc1)c1ccccc1` (configuration not stated), the “activity change, negative = inhibition” value was “inactive”.
With `COc1ccc(NC2=C(NCCO)C(=O)c3ccccc3C2=O)cc1`, the AC50 is 4.37 µM.
Same read-out and setting: then `CN(C)CC/C=C1/c2ccc(F)cc2Sc2ccc(Cl)cc21`, with 5.01 µM; and `COc1cc(OC)c2c(-c3ccccc3)cc(=O)oc2c1C(CCN1CCCCC1)c1ccc2c(c1)OCO2` (configuration not stated), with 1.08 µM.
Still for that read-out and setting: with `CC1(C)CC(Nc2ccc(Nc3ccccc3)cc2)CC(C)(C)N1` the figure was 6.78 µM.
With `Cc1[nH]n(-c2ccccc2)c(=O)c1N=Nc1c(O)cc(S(=O)(=O)N(C)C)c2ccccc12`, the “activity change, negative = inhibition” value was “inactive”.
In the case of `CN(C)CCNC(=O)c1cccc(-c2cnc3c(NC=O)cc(/C=C/c4ccccc4)cn23)c1`, the AC50 was 0.523 µM.
For `C#CCOCCOCCOCCNc1nc(N2CCN(C(=O)[C@H]([C@@H](C)CC)n3cc(CCCN=C(N)N)nn3)CC2)nc(N2CCN(C(=O)[C@H](CCCCN)n3cc(CCCC)nn3)CC2)n1`, the concentration at half-maximal activity (AC50) is 8.98 µM.
For the molecule `CN(C)CCNc1nc2sc3c(c2c(=O)n1CCc1ccccc1)CCCCC3`, the “activity change, negative = inhibition” value is “inactive”.
Consider `CNC(=S)N1N=C(c2ccc(Br)cc2)CC1c1ccc(N(C)C)cc1` (configuration not stated), for which the “activity change, negative = inhibition” value is “inactive”.
Same read-out and setting: with `CCN(CC)CCSc1nc2ccccc2c(=S)n1-c1ccccc1` the entry was “inactive”.
Take `CN(CCc1ccccc1)C(=O)c1ccc(NC(=O)Cc2ccc(NC(=O)C3CCN(C(=O)C4CCCC4)CC3)cc2)cc1`: the AC50 was less than 0.08 µM.
In the case of `COc1cc(/C=N/N=C(N)N)ccc1OCc1ccc(Cl)cc1`, the “activity change, negative = inhibition” value was “inactive”.
`Cc1cccc(NC2=C(NCCO)C(=O)c3ccccc3C2=O)c1`: the half-maximal activity concentration (AC50) was 3.55 µM.
For `CCN(CC)c1ccc(CN2CCC(C(=O)NCc3ccc(C)cc3)CC2)cc1`, the “activity change, negative = inhibition” value was “inactive”.
On to `Oc1ccc(O)c(C=NNC(=S)NC2CC3CC2C2C=CCC32)c1` (configuration not stated), for which the AC50 was 8.16 µM.
As for `C#CCOCCOCCOCCNc1nc(N2CCN(C(=O)[C@H](CCCCN)n3cc(CCCC)nn3)CC2)nc(N2CCN(C(=O)[C@H](CCCCN)n3cc(CCCC)nn3)CC2)n1`, the concentration at half-maximal activity (AC50) is 11.3 µM.
With `C[C@@H]1CN([C@H](C)CO)C(=O)c2c(c3ccccc3n2C)-c2ccccc2CO[C@@H]1CN(C)Cc1ccc2c(c1)OCCN2C`, the “activity change, negative = inhibition” value is “inactive”.
With `O=C(O)CCCNc1cc(N2CCN(C(=O)c3ccco3)CC2)c2noc3c2c1C(=O)c1ccccc1-3`, the AC50 is 10.6 µM.
Take `COc1ccc(N2CCN(CCCNC(=O)C(=O)c3c(C)n(C)c4ccccc34)CC2)cc1`: the “activity change, negative = inhibition” value was “inactive”.
With `CN(C(=O)c1ccc(NC(=O)Cc2ccc(NC(=O)C3CCN(C(=O)c4ccccc4)CC3)cc2)cc1)C1CC1`, the AC50 was 0.233 µM.
As for `COc1ccc(N2CCN(C(=O)C3CCCN(S(=O)(=O)c4c(C)noc4C)C3)CC2)cc1` (configuration not stated), the “activity change, negative = inhibition” value was “inactive”.
In the case of `C[C@@H]1CCCCO[C@H](CN(C)Cc2ccc(C(F)(F)F)cc2)[C@H](C)CN([C@H](C)CO)C(=O)c2cc(N(C)C)ccc2O1`, the “activity change, negative = inhibition” value was “inactive”.
Still for that read-out and setting: with `Fc1ccc(-[n+]2nc(Nc3ccccc3)sc2-c2c(Cl)cccc2Cl)cc1` the entry was “inactive”; with `CC(C)n1ncc2c(C(=O)Nc3ccc(S(N)(=O)=O)cc3)cc(C3CC3)nc21`, “inactive”.
On the same count and under the same terms, with `Cc1ccc(-c2cc(-c3ccc(C)cc3)[n+](-c3ccc(C(=O)[O-])cc3)c(-c3ccc(C)cc3)c2)cc1` the entry was “inactive”.
In the case of `O=C1c2ccccc2NC(c2cccc([N+](=O)[O-])c2)N1O` (configuration not stated), the AC50 is 11.2 µM.
For the molecule `Cn1cc(C(=O)N/N=C/c2c(O)ccc3ccccc23)ccc1=O`, the “activity change, negative = inhibition” value is “inactive”.
`Oc1c(C(Nc2cccc(C(F)(F)F)c2)c2ccncc2)ccc2cccnc12` (configuration not stated): the AC50 was 0.515 µM.

As usually defined, the AC50 is the concentration giving half of the maximal activity seen.
